Patent US20230017045A1, “PYRIDINE AND PYRIMIDINE CARBOXYLATE HERBICIDES AND METHODS OF USE THEREOF” (Dow AgroSciences LLC, priority 2017, published 2023)

What follows are compounds tested on test plant species (assay: Post-emergent herbicidal activity test (greenhouse, foliar spray, visual growth reduction)). Details: post-emergence, 336 h, ECHCG: barnyardgrass (Echinochloa crus-galli), 140 g ai/ha, 14 days after application, read-out: Visual Growth Reduction (%) 14 Days After Application, ECHCG.
Type: in vivo
Protocol: Post-emergent Test: Seeds or nutlets of the desired test plant species were planted in Sun Gro Metro-Mix® 360 planting mixture, which typically has a pH of 6.0 to 6.8 and an organic matter content of about 30 percent, in plastic pots with a surface area of 64 square centimeters. In some aspects, to ensure good germination and healthy plants, a fungicide treatment and/or other chemical or physical treatment was applied. The plants were grown for 7-21 d in a greenhouse with an approximate 15 h photoperiod which was maintained at 23-29° C. during the day and 22-28° C. during the night. Nutrients and water were added on a regular basis and supplemental lighting was provided with overhead metal halide 1000-Watt lamps as necessary. Plants were used for testing when they reached the first or second true leaf stage. A weighed amount, determined by the highest rate to be tested, of each test compound was placed in a 25 mL glass vial and was dissolved in 4 mL of a 97:3 v/v mixture of acetone and DMSO to obtain concentrated stock solutions. […] The concentrated stock solutions obtained were diluted with 20 mL of an aqueous mixture containing acetone, water, isopropyl alcohol, DMSO, […] crop oil concentrate, and X-77 surfactant in a 48.5:39:10:1.5:1.0:0.02 v/v ratio to obtain spray solutions containing the application rate. Compound requirements are based upon a 12 mL application volume at a rate of 187 liters per hectare (L/ha). Formulated compounds were applied to the plant material with an overhead Mandel track sprayer equipped with […] nozzles calibrated to deliver 187 L/ha over an application area of 0.64 square meters at a spray height of 18 inches (43 cm) above the average plant canopy height. Control plants were sprayed in the same manner with the solvent blank. The treated plants and control plants were placed in a greenhouse as described above and watered by subirrigation to prevent wash-off of the test compounds. After 14 d, the condition of the test plants as compared with that of the nontreated and control plants was determined visually and scored on a scale of 0 to 100 percent where 0 corresponds to no injury and 100 corresponds to complete control. In the reporting of the results, Table A: Percent Growth Reduction Conversion Table was used.

| SMILES | pest or weed control at 140 g/ha |
| --- | --- |
| COc1cc(C(F)(F)F)ccc1-c1nc(C(=O)OCc2ccccc2)c(Cl)cc1F [F363, Benzyl 3-chloro-5-fluoro-6-(2-methoxy-4-(trifluoromethyl)phenyl)picolinate] | 95 to 100% |
| C=Cc1cc(-c2nc(C(=O)OC)c(Cl)cc2F)c(Cl)cc1C(F)(F)F [F303, Methyl 3-chloro-6-(2-chloro-4-(trifluoromethyl)-5-vinylphenyl)-5-fluoropicolinate] | 0 to 29% |

Same assay, conditions: post-emergence, 336 h, IPOHE: ivy-leaf morning glory (Ipomoea hederacea), 140 g ai/ha, 14 days after application, read-out: Visual Growth Reduction (%) 14 Days After Application, IPOHE

| SMILES | pest or weed control at 140 g/ha |
| --- | --- |
| COc1cc(C(F)(F)F)ccc1-c1nc(C(=O)OCc2ccccc2)c(Cl)cc1F [F363, Benzyl 3-chloro-5-fluoro-6-(2-methoxy-4-(trifluoromethyl)phenyl)picolinate] | 95 to 100% |
| C=Cc1cc(-c2nc(C(=O)OC)c(Cl)cc2F)c(Cl)cc1C(F)(F)F [F303, Methyl 3-chloro-6-(2-chloro-4-(trifluoromethyl)-5-vinylphenyl)-5-fluoropicolinate] | 95 to 100% |

Same assay, conditions: post-emergence, 336 h, KCHSC: kochia (Bassia scoparia), 140 g ai/ha, 14 days after application, read-out: Visual Growth Reduction (%) 14 Days After Application, KCHSC

| SMILES | pest or weed control at 140 g/ha |
| --- | --- |
| COc1cc(C(F)(F)F)ccc1-c1nc(C(=O)OCc2ccccc2)c(Cl)cc1F [F363, Benzyl 3-chloro-5-fluoro-6-(2-methoxy-4-(trifluoromethyl)phenyl)picolinate] | 75 to 84% |
| C=Cc1cc(-c2nc(C(=O)OC)c(Cl)cc2F)c(Cl)cc1C(F)(F)F [F303, Methyl 3-chloro-6-(2-chloro-4-(trifluoromethyl)-5-vinylphenyl)-5-fluoropicolinate] | 0 to 29% |

Same assay, conditions: post-emergence, 336 h, ORYSA: rice (Oryza sativa), 140 g ai/ha, 14 days after application, read-out: Visual Growth Reduction (%) 14 Days After Application, ORYSA

| SMILES | pest or weed control at 140 g/ha |
| --- | --- |
| COc1cc(C(F)(F)F)ccc1-c1nc(C(=O)OCc2ccccc2)c(Cl)cc1F [F363, Benzyl 3-chloro-5-fluoro-6-(2-methoxy-4-(trifluoromethyl)phenyl)picolinate] | 30 to 44% |
| C=Cc1cc(-c2nc(C(=O)OC)c(Cl)cc2F)c(Cl)cc1C(F)(F)F [F303, Methyl 3-chloro-6-(2-chloro-4-(trifluoromethyl)-5-vinylphenyl)-5-fluoropicolinate] | 0 to 29% |

Same assay, conditions: post-emergence, 336 h, SETFA: giant foxtail (Setaria faberi), 140 g ai/ha, 14 days after application, read-out: Visual Growth Reduction (%) 14 Days After Application, SETFA

| SMILES | pest or weed control at 140 g/ha |
| --- | --- |
| COc1cc(C(F)(F)F)ccc1-c1nc(C(=O)OCc2ccccc2)c(Cl)cc1F [F363, Benzyl 3-chloro-5-fluoro-6-(2-methoxy-4-(trifluoromethyl)phenyl)picolinate] | 85 to 94% |
| C=Cc1cc(-c2nc(C(=O)OC)c(Cl)cc2F)c(Cl)cc1C(F)(F)F [F303, Methyl 3-chloro-6-(2-chloro-4-(trifluoromethyl)-5-vinylphenyl)-5-fluoropicolinate] | 0 to 29% |

Same assay, conditions: post-emergence, 336 h, SORVU: grain sorghum (Sorghum vulgare), 140 g ai/ha, 14 days after application, read-out: Visual Growth Reduction (%) 14 Days After Application, SORVU

| SMILES | pest or weed control at 140 g/ha |
| --- | --- |
| COc1cc(C(F)(F)F)ccc1-c1nc(C(=O)OCc2ccccc2)c(Cl)cc1F [F363, Benzyl 3-chloro-5-fluoro-6-(2-methoxy-4-(trifluoromethyl)phenyl)picolinate] | 95 to 100% |
| C=Cc1cc(-c2nc(C(=O)OC)c(Cl)cc2F)c(Cl)cc1C(F)(F)F [F303, Methyl 3-chloro-6-(2-chloro-4-(trifluoromethyl)-5-vinylphenyl)-5-fluoropicolinate] | 0 to 29% |

Same assay, conditions: post-emergence, 336 h, STEME: common chickweed (Stellaria media), 140 g ai/ha, 14 days after application, read-out: Visual Growth Reduction (%) 14 Days After Application, STEME

| SMILES | pest or weed control at 140 g/ha |
| --- | --- |
| COc1cc(C(F)(F)F)ccc1-c1nc(C(=O)OCc2ccccc2)c(Cl)cc1F [F363, Benzyl 3-chloro-5-fluoro-6-(2-methoxy-4-(trifluoromethyl)phenyl)picolinate] | 30 to 44% |
| C=Cc1cc(-c2nc(C(=O)OC)c(Cl)cc2F)c(Cl)cc1C(F)(F)F [F303, Methyl 3-chloro-6-(2-chloro-4-(trifluoromethyl)-5-vinylphenyl)-5-fluoropicolinate] | 0 to 29% |

Same assay, conditions: post-emergence, 336 h, TRZAS: wheat, spring (Triticum aestivum), 140 g ai/ha, 14 days after application, read-out: Visual Growth Reduction (%) 14 Days After Application, TRZAS

| SMILES | pest or weed control at 140 g/ha |
| --- | --- |
| COc1cc(C(F)(F)F)ccc1-c1nc(C(=O)OCc2ccccc2)c(Cl)cc1F [F363, Benzyl 3-chloro-5-fluoro-6-(2-methoxy-4-(trifluoromethyl)phenyl)picolinate] | 75 to 84% |
| C=Cc1cc(-c2nc(C(=O)OC)c(Cl)cc2F)c(Cl)cc1C(F)(F)F [F303, Methyl 3-chloro-6-(2-chloro-4-(trifluoromethyl)-5-vinylphenyl)-5-fluoropicolinate] | 0 to 29% |

Same assay, conditions: post-emergence, 336 h, blackgrass (Alopecurus myosuroides), 14 Days After Application, 140 g ai/ha, read-out: Visual Growth Reduction (%) ALOMY

| SMILES | pest or weed control at 140 g/ha |
| --- | --- |
| COc1cc(C(F)(F)F)ccc1-c1nc(C(=O)OCc2ccccc2)c(Cl)cc1F [F363, Benzyl 3-chloro-5-fluoro-6-(2-methoxy-4-(trifluoromethyl)phenyl)picolinate] | 0 to 29% |
| C=Cc1cc(-c2nc(C(=O)OC)c(Cl)cc2F)c(Cl)cc1C(F)(F)F [F303, Methyl 3-chloro-6-(2-chloro-4-(trifluoromethyl)-5-vinylphenyl)-5-fluoropicolinate] | 0 to 29% |

Same assay, conditions: post-emergence, 336 h, canada thistle (Cirsium arvense), 14 Days After Application, 140 g ai/ha, read-out: Visual Growth Reduction (%) CIRAR

| SMILES | pest or weed control at 140 g/ha |
| --- | --- |
| COc1cc(C(F)(F)F)ccc1-c1nc(C(=O)OCc2ccccc2)c(Cl)cc1F [F363, Benzyl 3-chloro-5-fluoro-6-(2-methoxy-4-(trifluoromethyl)phenyl)picolinate] | 85 to 94% |
| C=Cc1cc(-c2nc(C(=O)OC)c(Cl)cc2F)c(Cl)cc1C(F)(F)F [F303, Methyl 3-chloro-6-(2-chloro-4-(trifluoromethyl)-5-vinylphenyl)-5-fluoropicolinate] | 0 to 29% |

Same assay, conditions: post-emergence, 336 h, crabgrass (Digitaria sanguinalis), 14 Days After Application, 140 g ai/ha, read-out: Visual Growth Reduction (%) DIGSA

| SMILES | pest or weed control at 140 g/ha |
| --- | --- |
| COc1cc(C(F)(F)F)ccc1-c1nc(C(=O)OCc2ccccc2)c(Cl)cc1F [F363, Benzyl 3-chloro-5-fluoro-6-(2-methoxy-4-(trifluoromethyl)phenyl)picolinate] | 0 to 29% |
| C=Cc1cc(-c2nc(C(=O)OC)c(Cl)cc2F)c(Cl)cc1C(F)(F)F [F303, Methyl 3-chloro-6-(2-chloro-4-(trifluoromethyl)-5-vinylphenyl)-5-fluoropicolinate] | 0 to 29% |

Same assay, conditions: post-emergence, 336 h, lambsquarters (Chenopodium album), 14 Days After Application, 140 g ai/ha, read-out: Visual Growth Reduction (%) CHEAL

| SMILES | pest or weed control at 140 g/ha |
| --- | --- |
| COc1cc(C(F)(F)F)ccc1-c1nc(C(=O)OCc2ccccc2)c(Cl)cc1F [F363, Benzyl 3-chloro-5-fluoro-6-(2-methoxy-4-(trifluoromethyl)phenyl)picolinate] | 95 to 100% |
| C=Cc1cc(-c2nc(C(=O)OC)c(Cl)cc2F)c(Cl)cc1C(F)(F)F [F303, Methyl 3-chloro-6-(2-chloro-4-(trifluoromethyl)-5-vinylphenyl)-5-fluoropicolinate] | 75 to 84% |

Same assay, conditions: post-emergence, 336 h, redroot pigweed (Amaranthus retroflexus), 14 Days After Application, 140 g ai/ha, read-out: Visual Growth Reduction (%) AMARE

| SMILES | pest or weed control at 140 g/ha |
| --- | --- |
| COc1cc(C(F)(F)F)ccc1-c1nc(C(=O)OCc2ccccc2)c(Cl)cc1F [F363, Benzyl 3-chloro-5-fluoro-6-(2-methoxy-4-(trifluoromethyl)phenyl)picolinate] | 95 to 100% |
| C=Cc1cc(-c2nc(C(=O)OC)c(Cl)cc2F)c(Cl)cc1C(F)(F)F [F303, Methyl 3-chloro-6-(2-chloro-4-(trifluoromethyl)-5-vinylphenyl)-5-fluoropicolinate] | 0 to 29% |

Same assay, conditions: post-emergence, 336 h, wild oat (Avena fatua), 14 Days After Application, 140 g ai/ha, read-out: Visual Growth Reduction (%) AVEFA

| SMILES | pest or weed control at 140 g/ha |
| --- | --- |
| COc1cc(C(F)(F)F)ccc1-c1nc(C(=O)OCc2ccccc2)c(Cl)cc1F [F363, Benzyl 3-chloro-5-fluoro-6-(2-methoxy-4-(trifluoromethyl)phenyl)picolinate] | 85 to 94% |
| C=Cc1cc(-c2nc(C(=O)OC)c(Cl)cc2F)c(Cl)cc1C(F)(F)F [F303, Methyl 3-chloro-6-(2-chloro-4-(trifluoromethyl)-5-vinylphenyl)-5-fluoropicolinate] | 0 to 29% |

Same assay, conditions: post-emergence, 336 h, yellow nutsedge (Cyperus esculentus), 14 Days After Application, 140 g ai/ha, read-out: Visual Growth Reduction (%) CYPES

| SMILES | pest or weed control at 140 g/ha |
| --- | --- |
| COc1cc(C(F)(F)F)ccc1-c1nc(C(=O)OCc2ccccc2)c(Cl)cc1F [F363, Benzyl 3-chloro-5-fluoro-6-(2-methoxy-4-(trifluoromethyl)phenyl)picolinate] | 0 to 29% |
| C=Cc1cc(-c2nc(C(=O)OC)c(Cl)cc2F)c(Cl)cc1C(F)(F)F [F303, Methyl 3-chloro-6-(2-chloro-4-(trifluoromethyl)-5-vinylphenyl)-5-fluoropicolinate] | 0 to 29% |
